Values quoted from earlier work in patent US8828977B2, “Method of treating a subject suffering from degenerative disc disease using a matrix metalloprotease inhibitor” (priority 2006, dated 2014).
≈ marks a conversion by molar mass, not a printed value. Where two headings read alike, the source gives them in different places.

Legend:
[1] = stability and solubility inversely related
[2] = tested on: panel of prostate cancer cell lines; conditions: MTT assays
[3] = tested on: prostate cancer cell lines
[4] = tested on: human umbilical vein endothelial cells (HUVECs); conditions: HUVECs stimulated with angiogenic factors in vitro
[5] = target: T1, COX-2 (Homo sapiens, UniProt P35354); conditions: in vitro
T1 sequence (P35354 18-604): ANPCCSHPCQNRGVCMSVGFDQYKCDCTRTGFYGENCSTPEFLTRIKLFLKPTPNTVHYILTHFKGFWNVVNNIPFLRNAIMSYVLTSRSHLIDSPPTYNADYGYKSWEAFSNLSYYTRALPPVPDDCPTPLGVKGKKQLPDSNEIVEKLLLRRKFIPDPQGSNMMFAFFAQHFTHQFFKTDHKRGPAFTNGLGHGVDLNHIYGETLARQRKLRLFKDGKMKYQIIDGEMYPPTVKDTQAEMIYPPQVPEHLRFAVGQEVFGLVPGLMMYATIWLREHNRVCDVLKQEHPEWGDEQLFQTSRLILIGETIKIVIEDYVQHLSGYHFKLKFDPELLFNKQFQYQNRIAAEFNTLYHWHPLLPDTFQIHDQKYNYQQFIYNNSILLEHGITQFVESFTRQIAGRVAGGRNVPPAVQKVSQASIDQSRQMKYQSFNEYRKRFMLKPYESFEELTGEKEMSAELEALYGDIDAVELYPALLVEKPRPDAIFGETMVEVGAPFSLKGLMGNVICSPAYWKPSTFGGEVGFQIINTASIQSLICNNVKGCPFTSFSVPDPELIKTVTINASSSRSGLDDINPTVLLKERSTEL

[6] = two dose-escalation studies in humans
[7] = tested on: iNOS mRNA
[8] = tested on: refractory metastatic cancers
[9] = target: MMP-9 (Homo sapiens, UniProt P14780); conditions: of the seven CMTs evaluated, zymography
MMP-9, sequence (P14780 94-707): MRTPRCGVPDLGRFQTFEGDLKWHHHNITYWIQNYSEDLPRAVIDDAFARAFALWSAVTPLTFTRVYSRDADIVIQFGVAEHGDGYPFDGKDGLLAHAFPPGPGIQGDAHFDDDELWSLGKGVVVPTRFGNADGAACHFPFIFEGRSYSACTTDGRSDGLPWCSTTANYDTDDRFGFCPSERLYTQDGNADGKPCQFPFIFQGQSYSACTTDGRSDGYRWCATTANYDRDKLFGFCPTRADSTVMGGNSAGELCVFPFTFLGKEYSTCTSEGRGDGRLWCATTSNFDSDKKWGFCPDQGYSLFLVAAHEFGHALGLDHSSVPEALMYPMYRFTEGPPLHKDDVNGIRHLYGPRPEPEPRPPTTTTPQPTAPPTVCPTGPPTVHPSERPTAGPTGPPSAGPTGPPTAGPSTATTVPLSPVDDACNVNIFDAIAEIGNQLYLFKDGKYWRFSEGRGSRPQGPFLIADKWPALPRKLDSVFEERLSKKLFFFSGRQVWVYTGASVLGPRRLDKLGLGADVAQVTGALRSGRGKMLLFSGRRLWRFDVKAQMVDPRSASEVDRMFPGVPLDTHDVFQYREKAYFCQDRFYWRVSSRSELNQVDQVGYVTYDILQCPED

[10] = tested on: metastatic melanoma cells; conditions: metastatic melanoma cells in vitro
[11] = not given; remark: listed apart in the source
[12] = target: T2, MMP-2 (Homo sapiens, UniProt P08253)
T2 sequence (P08253 110-660): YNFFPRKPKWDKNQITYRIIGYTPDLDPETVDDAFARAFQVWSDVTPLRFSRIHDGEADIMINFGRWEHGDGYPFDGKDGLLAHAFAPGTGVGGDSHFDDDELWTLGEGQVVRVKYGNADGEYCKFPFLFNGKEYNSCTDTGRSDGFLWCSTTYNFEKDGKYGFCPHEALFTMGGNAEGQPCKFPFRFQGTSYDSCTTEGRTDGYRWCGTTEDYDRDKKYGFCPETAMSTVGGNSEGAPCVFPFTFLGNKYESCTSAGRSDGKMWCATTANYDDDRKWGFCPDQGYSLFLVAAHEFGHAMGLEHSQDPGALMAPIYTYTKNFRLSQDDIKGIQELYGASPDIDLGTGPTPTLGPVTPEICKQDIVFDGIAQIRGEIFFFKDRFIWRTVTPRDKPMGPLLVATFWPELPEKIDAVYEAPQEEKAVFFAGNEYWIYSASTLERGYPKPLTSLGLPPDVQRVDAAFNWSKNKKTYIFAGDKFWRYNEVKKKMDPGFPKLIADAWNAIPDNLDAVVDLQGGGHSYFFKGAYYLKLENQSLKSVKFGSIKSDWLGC

[13] = not given; remark: listed apart in the source
[14] = target: T2, MMP-2; conditions: of the seven CMTs evaluated, zymography
[15] = tested on: rheumatoid arthritis synoviocytes; conditions: activity comparable to doxycycline
[16] = tested on: lung foci (experimental metastasis); conditions: SCID mice
[17] = tested on: Dunning MatLyLu rat prostate tumor
[18] = tested on: HUVEC; conditions: in vitro
[19] = monkeys, any dosing schedule, after three to five doses
[20] = tested on: AIDS-associated Kaposi's sarcoma
[21] = rats
[22] = tested on: human melanoma cell line; conditions: activity comparable to doxycycline
[23] = 18 KS patients, sampling lasted only 24 h
[24] = rats, single oral dose of suspension
[25] = 142 animals, daily gavage 40 mg/kg for 7 days
[26] = tested on: immune responses; conditions: in vivo
[27] = mice
[28] = 35 patients with refractory metastatic cancers
[29] = non-competitive component, read-out: Ki′ (the dissociation equilibrium constant) value for MMP-2

For `NC(=O)C1=C(O)C[C@@H]2C[C@@H]3Cc4cccc(O)c4C(=O)C3=C(O)[C@]2(O)C1=O` [CMT-3], the “pH of maximum stability” value [1] is listed as under 4, the cytotoxicity [2] is listed as “significantly cytotoxic” and the “apoptosis, necrosis and cell-cycle arrest” value ([3]; added to prostate cell lines in vitro) is listed as “increased apoptosis and necrosis as well as cell-cycle arrest”. For the same compound, the “time of exposure to apoptosis induction” value ([3]; prostate cancer cell lines) was at most 4 h, the induction of apoptosis ([3]; prostate cancer cell lines, concentration-dependent) was “induced apoptosis” and the microtubule formation [4] was “inhibited microtubule formation”. The “dose with histopathological lesions in the small intestine and thymus” value (rats) was 100 mg/kg/day, the plasma level at which dose-limiting gastrointestinal toxicities occurred (rats (stated for both species)) was at least 15000 ng/mL and the COX-2 enzyme activity [5] was “inhibit COX-2 enzyme activity”. The “dose up to which plasma levels increased (plateau of steady-state concentration above)” value [6] was “up to 50 mg/m^2/day”, the “iNOS mRNA degradation” value [7] was “increases iNOS mRNA degradation” and the “patients experiencing some phototoxicity” value ([8]; 50 mg/m^2/day, sun-block mandatory) was “over 50%”. For the same compound, the “cases of drug-induced lupus” value [8, 28] was “three cases”, the “cases of reversible sideroblastic anemia” value [8, 28] was “three cases” and the “maximum tolerated dose (MTD)” value [8, 28] was 98 mg/m^2/day. For the same compound, the “change between pre- and post-treatment levels of MMP-2 or MMP-9” value ([8]; 35 patients, overall) was “no significant change”, the “sunburn (photosensitivity), dose-limiting” value ([8]; highest dose 98 mg/m^2/day, despite prophylactic measures) was “all 18 patients developed sunburn” and the musculoskeletal side effects ([8]; human trials) was “no reports”. The disease-stabilization ([8]; three out of seven patients with tumors of non-epithelial origin) was 43%, the “rank as MMP-9 inhibitor” value [9] was “second most potent MMP-9 inhibitor” and the vascular mimicry [10] was “inhibited this mechanism”. For the same compound, the total apparent clearance [11, 28] was 0.163 ± 0.0967 mL/min/kg, the median half-life ([11]; 35 patients, one-compartment model) was “approximately 56.1 h” and the “median apparent total clearance” value ([11]; humans) was 0.17 mL/min/kg. The “median pseudo-steady-state apparent volume of distribution” value ([11]; humans) was 0.64 L/kg, the Ki ([12]; competitive component, read-out: dissociation binding constant (Ki) value for MMP-2) was 74 µM and the Ki [12, 29] was 148 µM. For the same compound, the water solubility [13] was about 10 µg/mL (≈ 26.9 µM), the “rank as MMP-2 inhibitor” value [14] was “most effective MMP-2 inhibitor” and the “inhibiting the in vitro invasive ability” value [15] was “most active”. For the same compound, the “metastatic invasion compared with control animals” value ([16]; higher dose 100 mg/kg) was “did not significantly impact”, the “number of lung foci” value ([16]; orally at 40 mg/kg) was “significantly reduced” and the “instances of lung metastases” value ([17]; daily gavage at 40 mg/kg for 7 days, controls 59.5±13.9) was 28.9±15.4 tumors/animal. For the same compound, the “decrease of primary tumor incidence” value ([17]; pre-dosing the rats for 7 days) was 55±9%, the “delay of tumor growth” value ([17]; pre-dosing the rats for 7 days) was 27±9.3% and the reduction in metastases ([17]; pre-dosing the rats for 7 days) was 58±8%. For the same compound, the HUVEC proliferation [18] was “inhibited HUVEC proliferation”, the “dose resulting in mortalities” value [19] was 100 mg/kg/day and the “median duration of response” value ([20]; 18 KS patients) was over 25 weeks. For the same compound, the “median time to response” value ([20]; 18 KS patients) was 4 weeks, the overall response rate ([20]; 18 KS patients, one complete and seven partial responses) was 44% and the doses not tolerated ([20]; KS patients) was over 50 mg/m^2/day. The “evaluable patients with decrease in plasma concentration of MMP-2” value ([20]; KS patients) was 61%, the “evaluable patients with decrease in plasma concentration of MMP-9” value ([20]; KS patients) was 37% and the “doses reasonably well tolerated” value ([20]; KS patients, dose levels 25, 50 and 70) was “up to 70 mg/m^2/day”. The “increase of MMP-2 level from baseline” value ([20]; non-responding patients) was 300 ng/mL, the “decrease of MMP-2 level from baseline” value ([20]; responding patients) was 56 ng/mL and the terminal half-life [21] was 7 h. For the same compound, the “inhibiting the in vitro invasive ability” value [22] was “most active”, the median half-life [23] was 39.3 h and the half-life [24] was “approximately 6 h”. For the same compound, the “adverse effects or weight loss” value [25] was “no adverse effects or weight loss”.

In the case of `C[C@H]1c2cccc(O)c2C(=O)C2=C(O)[C@]3(O)C(=O)C(C(N)=O)=C(O)[C@@H](N(C)C)[C@@H]3[C@@H](O)[C@@H]21` [doxycycline], the cytotoxicity [2] is listed as “significantly cytotoxic”, the Ki [12, 29] is listed as 144 µM and the “effect on immune responses” value [26] is listed as “moderately inhibit immune responses”. The hepatotoxic effect [27] was “hepatotoxic effect”.
